Laboratory results: patent US4122179A, “Acid addition salts of vincamine and apovincamine” (priority 1976, dated 1978)
Where a name gives a salt, the structure may show the parent alone.

Experiments:
[1] = LD50 / acute toxicity, intraperitoneal route; assay type: in vivo; details: i.p.; for Toxicity (Gleason): Gleason class in words, classes not defined
vertebral arteria = assay: Cerebral vasodilating activity: hematic flow at the vertebral arteria after i.v. administration; assay type: in vivo; details: i.v. (femoral vein), 5 mg/kg of vincamine/apovincamine, anesthetized dog, 4 animals per compound
Experimental: (§1) For the compounds of the present invention a number of pharmacological and pharmacokinetic tests have been carried out. […] As regards the pharmacological and pharmacodynamic activity, it has been studied on the percent variations of the hematic flow, as recorded at the vertebral arteria in the dog after administration of the tested compounds. As regards the pharmacokinetic tests, the compounds were administered per oral route to the Wistar rat, and the hematic levels at different times from the administration were measured.
The cerebral vasodilating activity was studied in the anestetized dog, by measuring, by means of Statham periarterial electromagnetic flowmeters, the hematic flow at the level of the […] which, in such animal species, constitutes the greatest blood supply to the brain.
The resuls are reported in the TABLE 2 (last column) as the percent variations of the flow measured at the level of the ledt vertebral arteria after the i.v. administration of the several compounds to be tested to groups of 4 animals for each compound. The results also confirm that the compounds of the invention are all endowed with a vasodilating activity at the level of the cerebral circulus, such an action being, for some compounds, much more remarkable than that of vincamine and apovincamine.

[2] = Hematic levels at different times after oral administration (absorption); assay type: in vivo, Wistar rat; details: 100 mg/kg expressed as vincamine/apovincamine, 5% carboxymethyl cellulose suspension; for Tmax: rat, blood, po, read-out: Max. conc. time (converted)
Experimental: as §1
For the evaluation of the absorption, all the compounds have been orally administered at the dosage of 100 mg/kg, expressed as vincamine and apovincamine, in form of a suspension in a 5% carboxymethyl cellulose solution.
The absorption was determined by evaulating the hematic levels at the following times (minutes) : 0, 30, 120, 240, 480, 10 hours and 12 hours, in order also to assess the time from the administration (max conc.time) the maximum absorption occurred.
The vincamine and apovincamine concentrations were assessed by chromatographic method.
For the evaluation of the prolonged action of the salts and of the adducts of vincamine and apovincamine the following criterium was adopted; as derivatives having a long-acting effect, there are considered those which, 120 minutes after the administration, show hematic levels higher than those obtained with vincamine and apovincamine.

Solubility = assay type: physicochemical; details: qualitative; for solubility in alcohol: alcohol (ethyl alcohol)

Row | Compound | LD50 [1] [mg/kg] | Toxicity (Gleason) [1] | % increase (percent variation of hematic flow, left vertebral arteria) (vertebral arteria; 5 mg/kg) [%] | Max. conc. time ([2]; 100 mg/kg) [min] | solubility in alcohol (Solubility) | solubility in water (Solubility) | other results
1 | CC[C@@]12C=C(C(=O)OC)n3c4c(c5ccccc53)CCN(CCC1)[C@H]42 [Apovincamine, apovincamine] | 2000 | negligible | 25.6 | 60 | – | – | –
2 | CC[C@@]12C=C(C(=O)OC)n3c4c(c5ccccc53)CCN(CCC1)[C@H]42 [Example 25.b, Apovincamine (D,L)-mandelate] | – | – | 34.5 | 120 | soluble | insoluble | –
3 | CC[C@]12CCCN3CCc4c(n(c5ccccc45)[C@@](O)(C(=O)OC)C1)[C@@H]32 [Example 18.a, Vincamine enanthate] | 750 | modest | 27.7 | 60 | – | – | solubility in the common (organic) solvents (Solubility): insoluble
4 | Vincamine alginate [Example 23.a] | 550 | modest | – | – | – | insoluble | solubility in the common (organic) solvents (Solubility): insoluble; % increase (percent variation of hematic flow, left vertebral arteria) (vertebral arteria): 34.7%; Max. conc. time [2]: 20 min
5 | CC[C@]12CCCN3CCc4c(n(c5ccccc45)[C@@](O)(C(=O)OC)C1)[C@@H]32 [Example 27.a, Vincamine hydroquinone] | 500 | modest | 29.1 | 120 | – | insoluble | solubility in the common (organic) solvents (Solubility): insoluble
6 | glucose-6-phosphate disodium [Example 1.d] | 2000 | negligible | – | – | – | – | % increase (percent variation of hematic flow, left vertebral arteria) (vertebral arteria; disodium, 5 mg/kg): 29.3%; Max. conc. time ([2]; disodium, 100 mg/kg): 120 min
7 | CC[C@]12CCCN3CCc4c(n(c5ccccc45)[C@@](O)(C(=O)OC)C1)[C@@H]32 [Example 11.a, Vincamine 4-acetamidobutyrate] | 700 | modest | 29.3 | 480 | insoluble | insoluble | –
8 | Apovincamine-pectin (2:1 adduct) [Example 31.b] | 900 | light | – | – | poorly soluble | insoluble | % increase (percent variation of hematic flow, left vertebral arteria) (vertebral arteria): 28.2%; Max. conc. time [2]: 480 min
9 | glucose-6-phosphate disodium [Example 1.c] | 2000 | negligible | – | – | – | – | % increase (percent variation of hematic flow, left vertebral arteria) (vertebral arteria; disodium, 5 mg/kg): 26.3%; Max. conc. time ([2]; disodium, 100 mg/kg): 480 min
10 | Apovincamine alginate [Example 23.b] | 750 | modest | – | – | insoluble | insoluble | % increase (percent variation of hematic flow, left vertebral arteria) (vertebral arteria): 38.0%; Max. conc. time [2]: 60 min
11 | CC[C@]12CCCN3CCc4c(n(c5ccccc45)[C@@](O)(C(=O)OC)C1)[C@@H]32 [Example 8.a, Vincamine p-toluensulfonate] | 1250 | light | 25.1 | 480 | soluble | soluble | –
12 | CC[C@@]12C=C(C(=O)OC)n3c4c(c5ccccc53)CCN(CCC1)[C@H]42 [Example 6.b, Apovincamine 2,5-dihydroxybenzoate] | 750 | modest | 30.9 | 240 | insoluble | insoluble | –
13 | Apovincamine tannate [Example 24.b] | – | – | – | – | – | insoluble | % increase (percent variation of hematic flow, left vertebral arteria) (vertebral arteria): 29.8%; Max. conc. time [2]: 480 min
14 | CC[C@]12CCCN3CCc4c(n(c5ccccc45)[C@@](O)(C(=O)OC)C1)[C@@H]32 [Example 19.a, Vincamine p-chlorophenoxyacetate] | 750 | modest | 22.0 | 480 | soluble | insoluble | solubility in the common (organic) solvents (Solubility): insoluble
15 | CC[C@@]12C=C(C(=O)OC)n3c4c(c5ccccc53)CCN(CCC1)[C@H]42 [Example 28.b, Apovincamine salicylate] | 750 | modest | 26.7 | 240 | soluble | – | –
16 | CC[C@@]12C=C(C(=O)OC)n3c4c(c5ccccc53)CCN(CCC1)[C@H]42 [Example 2.b, Apovineamine 2,4-dihydroxy-benzoate] | 650 | modest | 29.0 | 120 | soluble | – | solubility in the common (organic) solvents (Solubility): not
17 | CC[C@@]12C=C(C(=O)OC)n3c4c(c5ccccc53)CCN(CCC1)[C@H]42 [Example 20.b, Apovincamine theophylline-7-acetate] | – | – | 27.2 | 120 | – | soluble | –
18 | CC[C@]12CCCN3CCc4c(n(c5ccccc45)[C@@](O)(C(=O)OC)C1)[C@@H]32 [Vincamine HCl, reference compound] | – | – | – | – | – | – | Toxicity (Gleason) ([1]; HCl): modest; LD50 ([1]; HCl): 800 mg/kg; % increase (percent variation of hematic flow, left vertebral arteria) (vertebral arteria; HCl, 5 mg/kg): 24.1%; Max. conc. time ([2]; HCl, 100 mg/kg): 20 min
19 | glucose-6-phosphate [Example 3.c] | 1000 | light | 28.4 | 240 | – | – | –
20 | CC[C@@]12C=C(C(=O)OC)n3c4c(c5ccccc53)CC[N+](C)(CCC1)[C@H]42 (stereo partly drawn) [Example 17.b, Apovincamine methylsulfate] | – | – | – | – | poorly soluble | soluble | % increase (percent variation of hematic flow, left vertebral arteria) (vertebral arteria): 29.7%; Tmax ([2]; 100 mg/kg): 1 h
21 | CC[C@@]12C=C(C(=O)OC)n3c4c(c5ccccc53)CCN(CCC1)[C@H]42 [Example 12.b, Apovincamine furoate] | – | – | 24.0 | 240 | soluble | insoluble | –
22 | CC[C@]12CCCN3CCc4c(n(c5ccccc45)[C@@](O)(C(=O)OC)C1)[C@@H]32 [Example 15.a, nicotinate] | 900 | modest | 21.9 | 60 | – | – | –
23 | CC[C@]12CCCN3CCc4c(n(c5ccccc45)[C@@](O)(C(=O)OC)C1)[C@@H]32 [Example 4.c, glucose-6-phosphate acid salt] | 800 | modest | 28.2 | 240 | – | – | –
24 | glucose-6-phosphate [Example 3.d] | 900 | modest | 28.8 | 120 | – | – | –
25 | CC[C@@]12C=C(C(=O)OC)n3c4c(c5ccccc53)CCN(CCC1)[C@H]42 [Example 13.b, Apovincamine D(+)-camphorsulfonate] | – | – | 37.4 | 120 | soluble | soluble | –
26 | CC[C@]12CCC[N+]3(C)CCc4c(n(c5ccccc45)[C@@](O)(C(=O)OC)C1)[C@H]23 (stereo partly drawn) [Example 17.a, Vincamine methylsulfate] | – | – | – | – | soluble | soluble | % increase (percent variation of hematic flow, left vertebral arteria) (vertebral arteria): 28.4%; Tmax ([2]; 100 mg/kg): 1 h
